The values that follow come from PMC10217311 (Gels, 2023).

Values after ≈ are worked out from the molar mass of the structure shown.

The nature of series [1]: physchem. As to the method: Lipophilicity is essential for predicting the hydrophobicity and partitioning of drugs in biological systems. Therefore, the test was prepared using the shake-flask method.
For series [2] the following is noted: for T5%, decomposition temperature, 5% weight loss of the initial mass / T50%, decomposition temperature, 50% weight loss of the initial mass: TG, oxidative conditions. As to the method: The thermal stability of drugs is an essential property necessary to control the formulation method of the finished drug. […] Both the temperature at which decomposition begins (Tonset) and the temperature at which mass loss accelerates to its maximum (Tmax) were identified. […]
XRD, thermal stability (TG), phase transition temperatures (DSC), specific rotation, solubility in water, and lipophilicity were also determined. […]
Thermal stability was assessed using thermogravimetric analyses performed on a Netzsch thermomicrobalance TG 209 F1 Libra. The analysis was conducted under oxidative conditions, with a nitrogen flow (as protective gas) of 10 mL/min, an airflow of 25 mL/min, and a temperature range of 25 to 1000 °C. Samples of roughly 5 mg weight were heated at 10°/min. The onset decomposition temperature was calculated using the intersection of TG curve tangents. The temperatures associated with the quickest sample weight loss were calculated using the first derivative of the TG curve (DTG curve). […]

A short description of series [3]: physchem. As to the method: The following oils were used in the research: hemp oil, evening primrose oil, and sunflower oil, as well as the following surfactants: Tween 40, Tween 60, Span 80, and Tween 80. […] The study was carried out in screw-cap vials with continuous magnetic stirring at 100 rpm at 25 °C for 48 h. A supersaturated solution was obtained and filtered through a syringe filter with MCE (Mixed Cellulose Ester) membrane (0.45 µm, ⌀ 47 mm). The content of the compound in the solution was determined by HPLC. The HPLC analyses were performed using a Shimadzu (Kyoto, Japan) Nexera-i LC-2040C 3D High Plus liquid chromatograph equipped with a DAD/FLD detector and Kinetex® F5 column 100 Å ([…]; 150 × 4.6 mm; Phenomenex, Torrance, CA, USA) maintained at 35 °C. The mixture of acetonitrile and water 60/40 (v/v) was used as the mobile phase under isocratic conditions, with a flow rate of 0.5 mL/min. The detection wavelength was 210 nm. The collected data were acquired and processed using LabSolutions/LC Solution System. Each measurement was performed in triplicate, and the results were averaged.
This is another data set of the same source.

Series [4] can be described thus: Permeation of the active substance through the skin, Franz diffusion cell. It counts as in vitro ADME, pig. To be noted: 24 h permeation test; abstract prints human skin. An excerpt:
The steady-state flux was estimated from the slope of the linear portion of the plot of cumulative mass in the acceptor phase over time.

`CC(C)Cc1ccc(C(C)C(=O)O)cc1` (stereo not drawn) [IBU, ibuprofen] returned a logP in “physchem [1]” of 2.758 ± 0.014. Moreover, in series [2], the “Tonset, the onset temperature of the thermal degradation” value was determined as 193.2 °C. In addition, the “T5%, decomposition temperature, 5% weight loss of the initial mass” value in series [2] was 162.1 °C. Moreover, the “T50%, decomposition temperature, 50% weight loss of the initial mass” value in series [2] turned out to be 210.3 °C. Besides, the solubility at 48 h in “physchem [3]” (Span 80, 25 °C, aqueous with cosolvent or surfactant or cyclodextrin, thermodynamic from solid) was 56.89 ± 0.15 mg/mL (≈ 276 mM); in “physchem [3]” (Tween 40), 466.1 ± 1.71 mg/mL (≈ 2260 mM); in the series “physchem [3]” (Tween 60, 25 °C, aqueous with cosolvent or surfactant or cyclodextrin, thermodynamic from solid), 519.6 ± 0.69 mg/mL (≈ 2520 mM); in the series “physchem [3]” (Tween 80), 411 ± 4.18 mg/mL (≈ 1990 mM); in the series “physchem [3]” (evening primrose oil, 25 °C, oil or lipid, thermodynamic from solid), 76.74 ± 0.35 mg/mL (≈ 372 mM); in “physchem [3]” (hemp oil), 95.44 ± 0.03 mg/mL (≈ 463 mM). Further, the Solubility in “physchem [3]” (in Sunflower oil, 25 °C, mean ± S.D., n = 3) is 65.10 ± 1.92 mg/mL (≈ 316 mM). In series [4], the “Average cumulative mass of IBU after 24 h from emulsion-based gel, times higher than commercial products” value is reported as 1.6–4.0 times.
As for `CC(C)Cc1ccc(C(C)C(=O)[O-])cc1.[Na+]` (stereo not drawn) [IBUNa, sodium ibuprofenate], in series [2], the “Tonset, the onset temperature of the thermal degradation” value came to 265.4 °C; the “T5%, decomposition temperature, 5% weight loss of the initial mass” value worked out at 285.4 °C; the “T50%, decomposition temperature, 50% weight loss of the initial mass” value was 445.1 °C.
